Experimental findings from patent US10072025B2, “Ethyl N-boc piperidinyl pyrazolo pyridones as Janus kinase inhibitors” (Merck Sharp & Dohme Corp., priority 2014, dated 2018) are described below.

The target of one experiment is JAK1 (Homo sapiens (Human), UniProt P23458). In words: Jak Biochemical HTRF Assay (JAK1). As for the experimental part:
(§1) Jak Biochemical HTRF Assay Protocol
(§2) The ability of compounds to inhibit the activity of JAK1, JAK2, JAK3, and Tyk2 was measured using a recombinant purified GST-tagged catalytic domain for each enzyme (Invitrogen JAK1 #M4290, JAK2 #M4290, JAK3 #M4290, Tyk2 #M4290) in an HTRF format biochemical assay. […] The basic assay protocol is as follows: First, 250 nL of diluted compounds in DMSO were dispensed into the wells of a dry 384-well Black plate (Greiner #781076) using a Labcyte Echo 555 acoustic dispenser. Subsequent reagent additions employed an Agilent Bravo. Next, 18 μL of 1.11× enzyme and 1.11× substrate in 1× assay buffer (Invitrogen kinase buffer # PV3189, 2 mM DTT, 0.05% BSA) were added to the wells and shaken and then preincubated for 30 minutes at room temperature to allow compound binding to equilibrate. After equilibration, 2 μL of 10×ATP in 1× assay buffer was added to initiate the kinase reaction and the plates were shaken and then incubated at room temperature for 120 minutes. At the end of the incubation, 20 μL of 2× stop buffer (streptavidin-Dylight 650 (Thermo #84547B/100 mL), Eu-tagged pY20 antibody (Perkin Elmer #AD0067), EDTA, HEPES, and Triton) was added to quench the reaction. Plates were shaken and centrifuged and then incubated 60 minutes at room temperature and then read on a Perkin Elmer Envision (Xex=337 nm, λem=665 and 615 nm, TRF delay time=20 μs). HTRF signal=10,000*665 nm reading/615 nm reading. After normalization to untreated controls, the percent inhibition of the HTRF signal at each compound concentration was calculated. The plot of percent inhibition versus the log of compound concentration was fit with a 4-parameter dose response equation to calculate IC50 values.
On the technique in general: Time-resolved FRET reads energy transfer from a long-lived donor to a nearby acceptor.

The target of the next experiment is JAK2 (Homo sapiens (Human), UniProt O60674). In words: Jak Biochemical HTRF Assay (JAK2). Conditions: recombinant purified GST-tagged catalytic domain, [ATP] 8.5 μM, [E] 0.052 nM. As for the experimental part:
as §1, §2

Where [1] appears, read: recombinant purified GST-tagged catalytic domain, HTRF, [ATP] 31.8 μM, [E] 1.405 nM.

Broadly, the IC50 is the concentration needed to halve the response being measured.

Where two headings read alike, the source gives them in different places.

Sequence of JAK1 (P23458 875-1153): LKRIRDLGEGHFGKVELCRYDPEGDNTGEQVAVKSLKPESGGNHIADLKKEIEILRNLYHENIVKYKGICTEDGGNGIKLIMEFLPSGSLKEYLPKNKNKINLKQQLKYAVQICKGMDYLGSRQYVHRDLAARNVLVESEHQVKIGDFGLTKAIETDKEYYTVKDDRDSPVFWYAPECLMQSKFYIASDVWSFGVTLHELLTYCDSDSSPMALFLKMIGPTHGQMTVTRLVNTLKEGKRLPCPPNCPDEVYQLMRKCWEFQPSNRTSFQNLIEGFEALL
Sequence of JAK2 (O60674 849-1124): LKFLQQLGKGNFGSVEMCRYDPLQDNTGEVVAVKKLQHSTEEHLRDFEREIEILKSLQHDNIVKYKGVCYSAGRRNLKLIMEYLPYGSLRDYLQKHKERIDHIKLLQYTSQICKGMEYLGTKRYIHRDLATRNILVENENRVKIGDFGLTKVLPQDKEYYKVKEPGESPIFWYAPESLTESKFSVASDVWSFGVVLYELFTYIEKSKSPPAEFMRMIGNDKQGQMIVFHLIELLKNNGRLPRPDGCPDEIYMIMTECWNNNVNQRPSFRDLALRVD

With `CCC1(n2nc(Nc3ccnc(F)c3)c3c(=O)[nH]ccc32)CCN(C(=O)OC(C)(C)C)CC1` [Example 2-40, tert-butyl 4-ethyl-4-(3-(2-fluoropyridin-4-ylamino)-4-oxo-4,5-dihydropyrazolo[4,3-c]pyridin-1-yl) piperidine-1-carboxylate], the results for the IC50 on JAK1 (setting [1]) and at JAK2 were 380 pM and 5240 pM, respectively.
In the same order, the values of `CCC1(n2nc(Nc3ccc(C(C)(OC)C(F)(F)F)cc3)c3c(=O)[nH]ccc32)CCN(C(=O)OC(C)(C)C)CC1` (stereo not drawn) [Example 2-41] are 4400 pM and 6870 pM.
In the same order, the values of `CCC1(n2nc(Nc3ccc(C(C)(O)C(F)(F)F)cc3)c3c(=O)[nH]ccc32)CCN(C(=O)OC(C)(C)C)CC1` (stereo not drawn) [Example 2-42, tert-butyl 4-ethyl-4-(4-oxo-3-((4-(1,1,1-trifluoro-2-hydroxypropan-2-yl)phenyl)amino)-4,5-dihydro-1H-pyrazolo[4,3-c]pyridin-1-yl) piperidine-1-carboxylate] are 1650 pM and 4620 pM.
In the same order, the values of `CCC1(n2nc(Nc3ccc(C(O)C(F)(F)F)cc3)c3c(=O)[nH]ccc32)CCN(C(=O)OC(C)(C)C)CC1` (stereo not drawn) [Example 2-43, tert-butyl 4-ethyl-4-(4-oxo-3-((4-(2,2,2-trifluoro-1-hydroxyethyl)phenyl)amino)-4,5-dihydro-1H-pyrazolo[4,3-c]pyridin-1-yl) piperidine-1-carboxylate] are 900 pM and 2910 pM.
For the molecule `CCC1(n2nc(Nc3ccc(C(=O)O)c(C)c3)c3c(=O)[nH]ccc32)CCN(C(=O)OC(C)(C)C)CC1` [Example 2-44, 4-((1-(1-(tert-butoxycarbonyl)-4-ethylpiperidin-4-yl)-4-oxo-4,5-dihydro-1H-pyrazolo [4,3-c]pyridin-3-yl)amino)-2-methylbenzoic acid], the half-maximal inhibitory concentration (IC50) on JAK1 (setting [1]) was determined as 230 pM; at JAK2, 2100 pM.
In the case of `CCC1(n2nc(Nc3ccc(C(=O)N4CCOC(=O)C4)c(C)c3)c3c(=O)[nH]ccc32)CCN(C(=O)OC(C)(C)C)CC1` [Example 3-1, tert-butyl-4-ethyl-4-(3-((3-methyl-4-(2-oxomorpholine-4-carbonyl)phenyl)amino)-4-oxo-4,5-dihydro-1H-pyrazolo[4,3-c]pyridin-1-yl)piperidine-1-carboxylate], the IC50 came to 250 pM at JAK1 (setting [1]) and 800 pM on JAK2.
In the same order, the values of `CCC1(n2nc(Nc3ccc(C(=O)N4CCOC(C)(C)C4)c(C)c3)c3c(=O)[nH]ccc32)CCN(C(=O)OC(C)(C)C)CC1` [Example 3-2, tert-butyl 4-[3-({4-[(2,2-dimethylmorpholin-4-yl)carbonyl]-3-methylphenyl}amino)-4-oxo-4,5-dihydro-1H-pyrazolo[4,3-c]pyridin-1-yl]-4-ethylpiperidine-1-carboxylate] are 610 pM and 750 pM.
In the same order, the values of `CCC1(n2nc(Nc3ccc(C(=O)N4CCOC5(CCCC5)C4)c(C)c3)c3c(=O)[nH]ccc32)CCN(C(=O)OC(C)(C)C)CC1` [Example 3-3, tert-butyl 4-ethyl-4-(3-{[3-methyl-4-(6-oxa-9-azaspiro[4.5]dec-9-ylcarbonyl)phenyl]amino}-4-oxo-4,5-dihydro-1H-pyrazolo[4,3-c]pyridin-1-yl) piperidine-1-carboxylate] are 990 pM and 1530 pM.
As for `CCC1(n2nc(Nc3ccc(C(=O)N4C[C@@H](C)O[C@@H](C)C4)c(C)c3)c3c(=O)[nH]ccc32)CCN(C(=O)OC(C)(C)C)CC1` [Example 3-4, tert-butyl 4-{3-[(4-{[(2R,6S)-2,6-dimethylmorpholin-4-yl]carbonyl}-3-methylphenyl)amino]-4-oxo-4,5-dihydro-1H-pyrazolo[4,3-c]pyridin-1-yl}-4-ethylpiperidine-1-carboxylate], the concentration for half-maximal inhibition (IC50) at JAK1 (setting [1]) is 1090 pM; on JAK2 it was 1170 pM.
Take `CCC1(n2nc(Nc3ccc(C(=O)N4CCOCC4(C)C)c(C)c3)c3c(=O)[nH]ccc32)CCN(C(=O)OC(C)(C)C)CC1` [Example 3-5, tert-butyl 4-[3-({4-[(3,3-dimethylmorpholin-4-yl)carbonyl]-3-methylphenyl}amino)-4-oxo-4,5-dihydro-1H-pyrazolo[4,3-c]pyridin-1-yl]-4-ethylpiperidine-1-carboxylate]: the 50% inhibitory concentration (IC50) on JAK1 (setting [1]) came out at 730 pM; on JAK2 it was 1210 pM.
For the molecule `CCC1(n2nc(Nc3ccc(C(=O)N4C[C@H]5C[C@@H](C4)O5)c(C)c3)c3c(=O)[nH]ccc32)CCN(C(=O)OC(C)(C)C)CC1` [Example 3-6, tert-butyl 4-ethyl-4-[3-({3-methyl-4-[(1R,5S)-6-oxa-3-azabicyclo[3.1.1]hept-3-ylcarbonyl]phenyl}amino)-4-oxo-4,5-dihydro-1H-pyrazolo[4,3-c]pyridin-1-yl]piperidine-1-carboxylate], the half-inhibitory concentration (IC50) against JAK1 was 300 pM; on JAK2, 430 pM.
For `CCC1(n2nc(Nc3ccc(C(=O)N4C[C@H](C)O[C@@H](C)C4)c(C)c3)c3c(=O)[nH]ccc32)CCN(C(=O)OC(C)(C)C)CC1` [Example 3-7, tert-butyl 4-{3-[(4-{[(2S,6S)-2,6-dimethylmorpholin-4-yl]carbonyl}-3-methylphenyl)amino]-4-oxo-4,5-dihydro-1H-pyrazolo[4,3-c]pyridin-1-yl}-4-ethylpiperidine-1-carboxylate], the results for the IC50 at JAK1 (setting [1]) and at JAK2 were 520 pM and 630 pM, respectively.
In the same order, the values of `CCC1(n2nc(Nc3ccc(C(=O)N4CCOC[C@H]4C(C)C)c(C)c3)c3c(=O)[nH]ccc32)CCN(C(=O)OC(C)(C)C)CC1` [Example 3-8, tert-butyl 4-ethyl-4-{3-[(3-methyl-4-{[(3R)-3-(1-methylethyl)morpholin-4-yl]carbonyl}phenyl)amino]-4-oxo-4,5-dihydro-1H-pyrazolo[4,3-0]pyridin-1-yl} piperidine-1-carboxylate] are 930 pM and 1010 pM.
On to `CCC1(n2nc(Nc3ccc(C(=O)N4CCCSCC4)c(C)c3)c3c(=O)[nH]ccc32)CCN(C(=O)OC(C)(C)C)CC1` [Example 3-9, tert-butyl 4-ethyl-4-(3-{[3-methyl-4-(1,4-thiazepan-4-ylcarbonyl)phenyl]amino}-4-oxo-4,5-dihydro-1H-pyrazolo[4,3-c]pyridin-1-yl) piperidine-1-carboxylate], for which the IC50 at JAK1 (setting [1]) was found to be 790 pM; at JAK2, 1050 pM.
In the same order, the values of `CCC1(n2nc(Nc3ccc(C(=O)N4CCCOCC4)c(C)c3)c3c(=O)[nH]ccc32)CCN(C(=O)OC(C)(C)C)CC1` [Example 3-10, tert-butyl 4-ethyl-4-(3-{[3-methyl-4-(1,4-oxazepan-4-ylcarbonyl)phenyl]amino}-4-oxo-4,5-dihydro-1H-pyrazolo[4,3-c]pyridin-1-yl) piperidine-1-carboxylate] are 290 pM and 430 pM.
`CCC1(n2nc(Nc3ccc(C(=O)N4CC[S+]([O-])CC4)c(C)c3)c3c(=O)[nH]ccc32)CCN(C(=O)OC(C)(C)C)CC1` [Example 3-11, tert-butyl 4-ethyl-4-[3-({3-methyl-4-[(1-oxidothiomorpholin-4-yl)carbonyl]phenyl}amino)-4-oxo-4,5-dihydro-1H-pyrazolo[4,3-c]pyridin-1-yl]piperidine-1-carboxylate]: the IC50 turned out to be 190 pM on JAK1 (setting [1]) and 250 pM at JAK2.
In the same order, the values of `CCC1(n2nc(Nc3ccc(C(=O)N4CCC(N5CCSCC5)CC4)c(C)c3)c3c(=O)[nH]ccc32)CCN(C(=O)OC(C)(C)C)CC1` [Example 3-12, tert-butyl 4-ethyl-4-[3-({3-methyl-4-[(4-thiomorpholin-4-ylpiperidin-1-yl)carbonyl]phenyl}amino)-4-oxo-4,5-dihydro-1H-pyrazolo[4,3-c]pyridin-1-yl] piperidine-1-carboxylate] are 560 pM and 680 pM.
In the same order, the values of `CCC1(n2nc(Nc3ccc(C(=O)N4CCOC5CC54)c(C)c3)c3c(=O)[nH]ccc32)CCN(C(=O)OC(C)(C)C)CC1` (stereo not drawn) [Example 3-21, tert-butyl 4-ethyl-4-(3-{[3-methyl-4-(2-oxa-5-azabicyclo [4.1.0]hept-5-ylcarbonyl)phenyl]amino}-4-oxo-4,5-dihydro-1H-pyrazolo [4,3-c]pyridin-1-yl) piperidine-1-carboxylate] are 1690 pM and 1340 pM.
